Laboratory results as given in patent publication US20230277553A1, “THERAPEUTIC COMPOSITION OF CURE-PRO COMPOUNDS FOR TARGETED DEGRADATION OF BET DOMAIN PROTEINS, AND METHODS OF MAKING AND USAGE” (CORNELL UNIVERSITY, priority 2020, published 2023).
Entries after “also recorded” stand apart in the source; their conditions may differ.

Tests used:
BRD4 [1] = biological target: T1, BRD4 (Homo sapiens, UniProt O60885); experiment: Summary of BRD4 degradation by CURE-PRO pairs, estimated from Western Blot or WES (Proteinsimple); assay type: cell-based; parameters: endogenous in cells; conditions: for Degradation of BRD4 in combination with CRBN ligand [drawing 372]: third drawing (8066); for Degradation of BRD4 in combination with CRBN ligand [drawing 407]: first drawing (by text: 8048)
Text: A black check mark indicates efficacy of 30% to 70% or higher protein degradation.

BRD4 [2] = biological target: T1, BRD4; experiment: CURE-PRO-mediated BRD4 degradation, Western blot, HeLa cells; assay type: cell-based; parameters: endogenous in cells; host or cells: HeLa; conditions: 24 h, Western blot; for BRD4 degradation, co-treatment with CRBN ligand 8046: 1:1 with 8046, 10 μM each; for BRD4 degradation, co-treatment with CRBN ligand 8047: 1:1 with 8047, 10 μM each; for BRD4 degradation, co-treatment with CRBN ligand 8066: 1:1 with 8066, 10 μM each (BRD-E10: 10 and 100 μM); for BRD4 degradation, co-treatment with CRBN ligand 8048: 1:1 with 8048, 1-10 μM each; for BRD4 degradation, co-treatment with CRBN ligand 8049: 1:1 with 8049, 1-10 μM each; for BRD4 degradation, BRD ligand alone: BRD monomer alone
Method: All cell lines were purchased from ATCC or DSMZ and grown at 37° C. with 5% CO2. Human HeLa cells were cultured in complete growth medium (Dulbecco's modified Eagle's medium (DMEM) supplemented with 10% FBS); MCF7 cells were cultured in complete growth medium (Dulbecco's modified Eagle's medium (DMEM) supplemented with 10% FBS and 0.01 mg/ml human recombinant insulin (Sigma Aldrich); Namalwa and MOLM-13 cells were cultured in complete growth medium (RPMI 1640 medium supplemented with 10% FBS); MV-4-11 were cultured in complete growth medium (Iscove's Modified Dulbecco's medium, supplemented with 10% FBS); HCT116 cells were cultured in complete growth medium (McCoy's 5a Medium supplemented with 10% FBS). For cellular degradation of BRD4 studies, cells were seeded in a 12-well plate at 70-80% confluency, allowed to attach overnight, and incubated with the indicated compounds for the indicated time. When indicated, a 15-minute pretreatment with 10 μM pomalidomide, 10 μM VHL298, 10 μM Nutlin3a, 1 μM MG-132 or 1 μM Carfilzomib was performed before the addition of CURE-PROs. For washout studies, after CURE-PRO treatment, media was aspirated and incubated with complete medium for the indicated time before lysis.
Anti-BRD4 (13440, 1:1,000 dilution for Western Blot and 1:25 dilution for ProteinSimple); Anti-BRD2 (5848 1:1,000 dilution for Western Blot and 1:25 dilution for ProteinSimple); β-Actin (3700, 1:2,000 dilution for Western Blot), β-Actin (4970, 1:50 dilution for ProteinSimple) anti-mouse IgG-HRP, and anti-rabbit IgG-HRP antibodies were purchased Cell Signaling Technology. Anti-GAPDH (600-401-A33, 1:100 dilution for ProteinSimple) was purchased from Rockland Immunochemicals, Inc. Anti-BRD3 (sc-81202, 1:200 dilution for Western Blot) was purchased from Santa Cruz Biotechnology.
HeLa, MCF7, or HCT116 cells (2.5-3×10^6) were treated for 24 hours with the indicated compounds solubilized in DMSO. The cells were washed in ice-cold PBS and were then lysed in RIPA lysis buffer (150 mM NaCl, 5 mM EDTA, 1% NP-40, 0.5% sodium deoxycholate, 0.1% SDS, 50 mM Tris, pH 8.0.) with Roche protease inhibitor complete cocktail and phosphatase inhibitors (10 mM sodium fluoride, 10 mM sodium pyrophosphate, 1 mM sodium orthovanadate and 20 mM β-glycerophosphate). The total protein concentrations were determined by Bradford Protein Assay and 10-20 μg of protein was loaded onto 4-15% Tris-Glycine gradient gels (Biorad). After standard gel electrophoresis, the separated proteins were transferred to PVDF membrane by wet transfer. The immunoblots were then blocked for 1 hour in 5% skim milk in TBST or 5% BSA in TBST, according to manufacturer's instructions, before an overnight incubation at 4° C. with indicated antibodies and membranes. Membranes were then incubated with the appropriate horseradish peroxidase-conjugated secondary antibodies (1:5,000 dilution) for 1 h at room temperature and the bands were visualized using the Clarity Max Western ECL Substrate (Biorad) and the ChemiDoc Imaging System (Biorad). Signal was detected with ECL Western Blotting Substrate (Pierce) and X-ray film processed with a Konica SRX-101 X-ray film processor or captured by Bio-Rad's Chemidoc Imaging system.
HeLa cells (2.5×106) were treated for 24 hours with the sample compounds solubilized in DMSO. Compounds were added at 1-10 μM each. Standardized protein samples were electrophoresed and imaged as described in the immunoblotting description above. FIGS. 6-18 depicts the CURE-PRO-mediated BRD4 degradation for BRD monomers (JQ1 derivatives comprising of catechol linkers), and CRBN ligands, 8048 and 8049 (pomalidomide derivatives comprising boronic acid linkers) combined in a 1:1 ratio.
HeLa cells (2.5×106) were treated for 24 hours with the compounds solubilized in DMSO. The compounds were added at 10 μM each. Standardized protein samples were electrophoresed and imaged as described in the immunoblotting section above. […]

[3] = Table 4, aryl-boronic acid-containing CRBN ligand

Structure (SMILES)	Degradation of BRD4 in combination with CRBN ligand [drawing 407] (BRD4 [1]; [3])	BRD4 degradation, co-treatment with CRBN ligand 8048 (BRD4 [2])	BRD4 degradation, co-treatment with CRBN ligand 8049 (BRD4 [2])	BRD4 degradation, BRD ligand alone (BRD4 [2])	other results
CCNC(=O)C[C@@H]1N=C(c2ccc(Cl)cc2)c2cc(OCCOCCOCCOCCNC(=O)c3ccc(B(O)O)cc3)ccc2-n2c(C)nnc21 [BRD-E43]					Degradation of BRD4 in combination with CRBN ligand [drawing 371] (BRD4 [1]; Table 1, CRBN ligand, second drawing (8047)): ✓ (A black check mark indicates efficacy of 30% to 70% or higher protein degradation); Degradation of BRD4 in combination with CRBN ligand [drawing 372] (BRD4 [1]; Table 1, CRBN ligand): ✓ (A black check mark indicates efficacy of 30% to 70% or higher protein degradation); BRD4 degradation, co-treatment with CRBN ligand 8046 (BRD4 [2]): but not 8046; BRD4 degradation, co-treatment with CRBN ligand 8047 (BRD4 [2]): causes degradation of BRD4; BRD4 degradation, co-treatment with CRBN ligand 8066 (BRD4 [2]): causes degradation of BRD4; also recorded: Degradation is noted
COc1ccc2c(c1)C(c1ccc(Cl)cc1)=N[C@@H](CC(=O)NCCOCCOCCNC(=O)c1ccc(B(O)O)cc1)c1nnc(C)n1-2 [BRD-E45]					Degradation of BRD4 in combination with CRBN ligand [drawing 372] (BRD4 [1]; Table 1, CRBN ligand): ✓ (A black check mark indicates efficacy of 30% to 70% or higher protein degradation); Degradation of BRD4 in combination with VHL ligand [drawing 397] (BRD4 [1]; Table 3, aromatic 1,2-diol-containing VHL ligand, second drawing (8305)): ✓ (A black check mark indicates efficacy of 30% to 70% or higher protein degradation); BRD4 degradation, co-treatment with CRBN ligand 8066 (BRD4 [2]): causes degradation of BRD4
COc1ccc2c(c1)C(c1ccc(Cl)cc1)=N[C@@H](CC(=O)Nc1ccc(B(O)O)cc1)c1nnc(C)n1-2 [BRD-E74, (4-(2-((4S)-6-(4-chlorophenyl)-8-methoxy-1-methyl-4H-benzo[f][1,2,4]triazolo[4,3-a][1,4]diazepin-4-yl)acetamido)phenyl)boronic acid]					Degradation of BRD4 in combination with CRBN ligand [drawing 370] (BRD4 [1]; Table 1, aromatic 1,2-diol- or hindered cis-1,2-diol-containing CRBN ligand, first drawing (8046)): ✓ (A black check mark indicates efficacy of 30% to 70% or higher protein degradation); BRD4 degradation, co-treatment with CRBN ligand 8046 (BRD4 [2]): causes degradation of BRD4; BRD4 degradation, co-treatment with CRBN ligand 8047 (BRD4 [2]): causes degradation of BRD4
COc1ccc2c(c1)C(c1ccc(Cl)cc1)=N[C@@H](CC(=O)NCCNC(=O)c1ccc(O)c(O)c1)c1nnc(C)n1-2 [BRD-N1]	✓ (A black check mark indicates efficacy of 30% to 70% or higher protein degradation)	causes degradation of BRD4; also recorded: Degradation is noted	no evidence of BRD4 degradation	no degradation of BRD4	
COc1ccc2c(c1)C(c1ccc(Cl)cc1)=N[C@@H](CC(=O)NCCCCNC(=O)c1ccc(O)c(O)c1)c1nnc(C)n1-2 [BRD-N5]	✓ (A black check mark indicates efficacy of 30% to 70% or higher protein degradation)	causes degradation of BRD4; also recorded: Degradation is noted	no evidence of BRD4 degradation	no degradation of BRD4	
COc1ccc2c(c1)C(c1ccc(Cl)cc1)=N[C@@H](CC(=O)NCCCCNC(=O)c1cccc(O)c1O)c1nnc(C)n1-2 [BRD-N6]	✓ (A black check mark indicates efficacy of 30% to 70% or higher protein degradation)	causes degradation of BRD4; also recorded: Degradation is noted	no evidence of BRD4 degradation	no degradation of BRD4	
CCNC(=O)C[C@@H]1N=C(c2ccc(Cl)cc2)c2cc(OCCCCC(=O)Nc3ccc(O)c(O)c3)ccc2-n2c(C)nnc21 [BRD-N22, 5-(((4S)-6-(4-chlorophenyl)-4-(2-(ethylamino)-2-oxoethyl)-1-methyl-4H-benzo[f][1,2,4]triazolo[4,3-a][1,4]diazepin-8-yl)oxy)-N-(3,4-dihydroxyphenyl)pentanamide]	✓ (A black check mark indicates efficacy of 30% to 70% or higher protein degradation)	causes degradation of BRD4; also recorded: Degradation is noted	no evidence of BRD4 degradation	no degradation of BRD4	
COc1ccc2c(c1)C(c1ccc(Cl)cc1)=N[C@@H](CC(=O)NCCNC(=O)Cc1ccc(O)c(O)c1)c1nnc(C)n1-2 [BRD-N30]	✓ (A black check mark indicates efficacy of 30% to 70% or higher protein degradation)	causes degradation of BRD4		no degradation of BRD4	
CCNC(=O)C[C@@H]1N=C(c2ccc(Cl)cc2)c2cc(OCCOCCNC(=O)c3ccc(O)c(O)c3)ccc2-n2c(C)nnc21 [BRD-N38, N-(2-(2-(((4S)-6-(4-chlorophenyl)-4-(2-(ethylamino)-2-oxoethyl)-1-methyl-4H-benzo[f][1,2,4]triazolo[4,3-a][1,4]diazepin-8-yl)oxy)ethoxy)ethyl)-3,4-dihydroxybenzamide]	✓ (A black check mark indicates efficacy of 30% to 70% or higher protein degradation)	causes degradation of BRD4		no degradation of BRD4	
COc1ccc2c(c1)C(c1ccc(Cl)cc1)=N[C@@H](CC(=O)NCCOCCOCCOCCNC(=O)c1ccc(O)c(O)c1)c1nnc(C)n1-2 [BRD-N44]	✓ (A black check mark indicates efficacy of 30% to 70% or higher protein degradation)	causes degradation of BRD4		no degradation of BRD4	
CCNC(=O)C[C@@H]1N=C(c2ccc(Cl)cc2)c2cc(-c3ccc4cc(O)c(O)cc4c3)ccc2-n2c(C)nnc21 [BRD-N67]	✓ (A black check mark indicates efficacy of 30% to 70% or higher protein degradation)	causes degradation of BRD4	causes degradation of BRD4	no degradation of BRD4	Degradation of BRD4 in combination with CRBN ligand [drawing 408] (BRD4 [1]; Table 4, aryl-boronic acid-containing CRBN ligand, second drawing (by text: 8049)): ✓ (A black check mark indicates efficacy of 30% to 70% or higher protein degradation)
